Source: patent publication US10980723B2, “Non-aqueous composition for hair frizz reduction” (The Procter & Gamble Company, priority 2017, dated 2021)

Assay: Hair Switch Frizz Assessment by ten expert graders
Conditions: for Results of Hair Switch Rating (frizz protection, clean feel, greasy feel) in words: aqueous compositions, Tables 3 and 4, 1% material; for Results of Hair Switch Rating (frizz protection, clean, smooth, greasy feel) in words: non-aqueous compositions, Tables 9 and 10, 1% material
Protocol: The leave-on treatment compositions are prepared by adding the Moisture Control Materials and perfume, if needed, into a 50:50 ethanol/water carrier and stirred until complete dissolution. The solution pH is adjusted using sodium hydroxide (50% w/w) to a final pH of 4.0-4.2. […] Method of Making Non-Aqueous Leave-on Treatment Compositions The non-aqueous leave-on treatment compositions are prepared by adding the Moisture Control Materials and perfume, if needed, into a mixture of Dimethiconol/Dimethicone and Cyclopentasiloxane/Isododecane and stirred until complete dissolution. Additionally, propylene glycol is added to aid in dissolution of moisture control materials at high levels of dimethicone. […] Method of Making of Non-Aqueous Leave-on Treatment Composition in a Solid Form The leave-on treatment composition in solid form is prepared by mixing together two different compositions. A premix and main-mix. […] In-Use Product Feel Assessment on Hair Switch Ten expert graders are asked to apply formulation on hair and rate each formulation based on a 5 point scale for in-use feel assessment, 5 being the highest (best feel) and 1 being the lowest rating. Method of Determining Stability of the Compositions Leave-on compositions are kept at 40° C. at 60% RH to visually assess any precipitation on day 1 and after a week of storage at these conditions.
Then, ten experts are asked to rate each hair switch in terms of frizz, clean feel, and greasy feel, based on a 5 point scale, 5 being the highest and 1 being the lowest rating.
Then, ten experts are asked to rate each hair switch in terms of frizz, clean feel, smooth feel and greasy feel, based on a 5 point scale, 5 being the highest and 1 being the lowest rating.

Row | SMILES | Results of Hair Switch Rating (frizz protection, clean feel, greasy feel) in words | Results of Hair Switch Rating (frizz protection, clean, smooth, greasy feel) in words
1 | O=C(O)c1ccc(O)cc1O [2,4-Dihydroxybenzoic acid] | provide frizz protection with clean feel and without greasy feel negative | provide frizz protection with clean and smooth feel and without greasy feel negative
2 | CCCCCCCCC(CO)CCCCCC (centres unmarked) [2-Hexyl-1-decanol] | provide frizz protection with clean feel and without greasy feel negative | provide frizz protection with clean, smooth feel and without greasy feel negative
3 | O=C(OCCO)c1ccccc1O [2-Hydroxyethyl salicylate] | provide frizz protection with clean feel and without greasy feel negative | provide frizz protection with clean, smooth feel and without greasy feel negative
4 | O=S(=O)(O)c1ccc(O)cc1 [4-Hydroxybenzenesulphonic acid] | provide frizz protection with clean feel and without greasy feel negative | provide frizz protection with clean and smooth feel and without greasy feel negative
5 | O=C(O)c1cc(Cl)ccc1O [5-Chlorosalicylic acid] | provide frizz protection with clean feel and without greasy feel negative | provide frizz protection with clean and smooth feel and without greasy feel negative
6 | CC(C)CCCCCCCCCCCCCCCOC(=O)CCCCCCCCCCCCCCC(C)C [Isostearyl isostearate] | provide frizz protection with clean feel and without greasy feel negative | provide frizz protection with clean, smooth feel and without greasy feel negative
7 | O=C(O)c1ccccc1O [Salicylic acid] | provide frizz protection with clean feel and without greasy feel negative | provide frizz protection with clean and smooth feel and without greasy feel negative
